Each structure is given as a SMILES string.

The first assay concerns A375 cells. The assay can be described thus: A375 cell immunofluorescence assay (with 1 μM S1152 and 0.5 μM S1008), EC50. It is filed as cell-based. The note with it: 1 μM S1152 + 0.5 μM S1008, one day, ratio FL2/FL3 staining (sc-365823 antibody). In short, it runs like this: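 A375 cells were treated for 1 day with 1 μM S1152, 0.5 μM S1008 and compound dose ranges in DMEM/10% FCS/2 mM glutamine, then fixed, permeabilized and immunostained (secondary antibody 2 μg/ml). FL2 (500-530 nm) signal was measured in propidium iodide-defined objects (FL3, 565-600 nm). The normalized ln FL2/ln FL3 ratio was log-transformed, and EC50 came from a 4-parameter fit.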
`CCC(=O)N1CCCC(c2nc(Nc3cccc(F)c3)cc(-c3cncc(F)c3)n2)C1` (stereo not drawn): the EC50 is greater than 10 µM.

Consider `CCC(=O)N1CCCC(c2nc(Nc3cccc(F)c3)cc(-c3cncc(C(=O)NC)c3)n2)C1` (stereo not drawn), for which the EC50 is 1 to 10 µM.

On to `CCC(=O)N1CCCC(c2nc(Nc3cccc(F)c3)cc(-c3cnccc3OC)n2)C1` (stereo not drawn), for which the EC50 was in the range of 1 to 10 µM.

Turning to `CCC(=O)N1CCCC(c2nc(Nc3cccc(F)c3)cc(-c3ccc(NC(C)=O)cc3)n2)C1` (stereo not drawn), the EC50 is 1 to 10 µM.

For `CCC(=O)N1CCCC(c2nc(Nc3cccc(F)c3)cc(-c3ccccc3NC(C)=O)n2)C1` (stereo not drawn), the EC50 was greater than 10 µM.

With `CCC(=O)N1CCCC(c2nc(Nc3cccc(F)c3)cc(-c3ccccc3OC)n2)C1` (stereo not drawn), the EC50 was greater than 10 µM.

Turning to `CCC(=O)N1CCCC(c2nc(Nc3cccc(F)c3)cc(-c3cn(C)nc3C)n2)C1` (stereo not drawn), the EC50 was greater than 10 µM.

In the case of `CCC(=O)N1CCCC(c2nc(Nc3cccc(F)c3)cc(-c3sc(C(C)C)nc3C)n2)C1` (stereo not drawn), the EC50 was 1 to 10 µM.

Take `CCC(=O)N1CCCC(c2nc(Nc3cccc(F)c3)cc(-c3csc4cnccc34)n2)C1` (stereo not drawn): the EC50 lay within 1 to 10 µM.

`CCC(=O)N1CCCC(c2nc(Nc3cccc(F)c3)cc(-c3cnn(CC(F)(F)F)c3)n2)C1` (stereo not drawn): the EC50 fell in the range of 1 to 10 µM.

Take `CCC(=O)N1CCCC(c2nc(Nc3cccc(F)c3)cc(-c3cncc4[nH]ccc34)n2)C1` (stereo not drawn): the EC50 is greater than 10 µM.

On to `CCC(=O)N1CCCC(c2nc(Nc3cccc(F)c3)cc(-c3ccc4scnc4c3)n2)C1` (stereo not drawn), for which the EC50 was in the range of 1 to 10 µM.

As for `CCC(=O)N1CCCC(c2nc(Nc3cccc(F)c3)cc(-c3cccc(-c4nnc(C)o4)c3)n2)C1` (stereo not drawn), the EC50 fell in the range of 1 to 10 µM.

On to `CCC(=O)N1CCCC(c2nc(Nc3cccc(F)c3)cc(-c3cccc(C#N)c3)n2)C1` (stereo not drawn), for which the EC50 lay in the range of 1 to 10 µM.

Take `CCC(=O)N1CCCC(c2nc(Nc3cccc(F)c3)cc(-c3cnn(C4CCC4)c3)n2)C1` (stereo not drawn): the EC50 is greater than 10 µM.

For `CC(=O)N1CCCC(c2nc(Nc3cccc(F)c3)cc(-c3cncc4[nH]ccc34)n2)C1` (stereo not drawn) [drawing 556], the EC50 is less than 1 µM.

`CC(=O)N1CCCC(c2nc(Nc3cccc(F)c3)cc(-c3cncc4[nH]ccc34)n2)C1` (stereo not drawn) [drawing 575]: the EC50 lay in the range of 1 to 10 µM.

With `CC(=O)N1CC(c2cc(Nc3cccc(F)c3)cc(-c3cccnc3)n2)CCC1C` (stereo not drawn) [drawing 689], the EC50 is greater than 10 µM.

For the compound `CC(=O)N1CC(c2cc(Nc3cccc(F)c3)cc(-c3cccnc3)n2)CCC1C` (stereo not drawn) [drawing 690], the EC50 lay in the range of 1 to 10 µM.

`CC(=O)N1CC(F)CC(c2nc(Nc3cccc(F)c3)cc(-c3cccnc3)n2)C1` (stereo not drawn) [drawing 702]: the EC50 lay in the range of 1 to 10 µM.

For `CC(=O)N1CC(F)CC(c2nc(Nc3cccc(F)c3)cc(-c3cccnc3)n2)C1` (stereo not drawn) [drawing 703], the EC50 was 1 to 10 µM.

For the compound `CC(=O)N1CCC(C)C(c2nc(Nc3cccc(F)c3)cc(-c3cccnc3)n2)C1` (stereo not drawn) [drawing 719], the EC50 was in the range of 1 to 10 µM.

With `CC(=O)N1CCC(C)C(c2nc(Nc3cccc(F)c3)cc(-c3cccnc3)n2)C1` (stereo not drawn) [drawing 720], the EC50 lay within 1 to 10 µM.

The next assay has as its target T1, TRIM33(PHD, Bromo.) (Homo sapiens, UniProt Q9UPN9).
T1 construct: TRIM33(PHD, Bromo.)
T1 sequence (Q9UPN9 1-1127): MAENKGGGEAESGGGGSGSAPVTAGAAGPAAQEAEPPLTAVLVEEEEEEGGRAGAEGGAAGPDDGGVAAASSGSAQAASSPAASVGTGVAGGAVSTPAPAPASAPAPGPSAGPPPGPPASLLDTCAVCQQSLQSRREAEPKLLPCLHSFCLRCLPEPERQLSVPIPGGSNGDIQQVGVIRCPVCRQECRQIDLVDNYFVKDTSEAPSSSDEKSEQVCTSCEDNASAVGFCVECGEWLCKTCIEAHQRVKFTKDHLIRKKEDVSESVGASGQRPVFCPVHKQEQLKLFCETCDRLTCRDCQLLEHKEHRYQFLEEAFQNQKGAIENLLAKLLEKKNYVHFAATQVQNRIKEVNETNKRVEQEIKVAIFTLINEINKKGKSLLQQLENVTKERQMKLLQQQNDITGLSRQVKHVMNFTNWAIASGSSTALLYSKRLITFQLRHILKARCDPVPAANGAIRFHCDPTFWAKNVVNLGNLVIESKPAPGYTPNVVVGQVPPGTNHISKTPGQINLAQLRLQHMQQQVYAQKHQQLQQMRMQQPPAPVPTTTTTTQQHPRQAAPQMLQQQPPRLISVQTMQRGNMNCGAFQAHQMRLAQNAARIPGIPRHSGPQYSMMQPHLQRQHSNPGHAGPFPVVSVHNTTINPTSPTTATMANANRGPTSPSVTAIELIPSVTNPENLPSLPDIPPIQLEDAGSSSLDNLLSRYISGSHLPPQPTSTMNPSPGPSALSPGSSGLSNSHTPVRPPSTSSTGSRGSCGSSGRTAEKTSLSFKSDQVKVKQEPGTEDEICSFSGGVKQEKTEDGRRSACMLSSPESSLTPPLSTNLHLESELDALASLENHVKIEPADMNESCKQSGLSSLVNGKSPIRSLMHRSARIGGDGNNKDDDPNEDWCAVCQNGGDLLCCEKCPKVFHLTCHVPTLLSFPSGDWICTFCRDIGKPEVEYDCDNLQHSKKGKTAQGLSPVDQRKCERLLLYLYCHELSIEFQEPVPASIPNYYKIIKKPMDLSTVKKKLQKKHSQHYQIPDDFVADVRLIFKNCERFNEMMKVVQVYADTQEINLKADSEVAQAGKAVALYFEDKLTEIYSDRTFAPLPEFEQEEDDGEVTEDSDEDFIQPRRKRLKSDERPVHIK
The assay can be described thus: BromoKdMAX (BROMOscan) TRIM33(PHD, Bromo.). The note with it: TRIM33(PHD, Bromo.) (Entrez TRIM33). The class given is binding. The procedure: A BromoKdMAX was performed at DiscoverX.
BROMOscan™ is a novel industry leading platform for identifying small molecule bromodomain inhibitors. Based on proven KINOMEscan™ technology, BROMOscan™ employs a proprietary ligand binding site-directed competition assay to quantitatively measure interactions between test compounds and bromodomains. This robust and reliable assay panel is suitable for high throughput screening and delivers quantitative ligand binding data to facilitate the identification and optimization of potent and selective small molecule bromodomain inhibitors.
For the Bromodomain assays, T7 phage strains displaying bromodomains were grown in parallel in 24-well blocks in an E. coli host derived from the BL21 strain. E. coli were grown to log-phase and infected with T7 phage from a frozen stock (multiplicity of infection=0.4) and incubated with shaking at 32° C. until lysis (90-150 minutes). The lysates were centrifuged (5,000×g) and filtered (0.2 μm) to remove cell debris. […] The liganded beads were blocked with excess biotin and washed with blocking buffer (SeaBlock (Pierce), 1% BSA, 0.05% Tween 20, 1 mM DTT) to remove unbound ligand and to reduce non-specific phage binding. […] Kds were determined using an 11-point 3-fold compound dilution series with one DMSO control point. […] The bromodomain concentration in the eluates was measured by qPCR.
`COc1cncc(-c2cc(Nc3cccc(F)c3)nc([C@@H]3CC[C@H](C)N(C(C)=O)C3)n2)c1` [Compound 00212, (−)-1-((2S,5R)-5-(4-((3-fluorophenyl)amino)-6-(5-methoxypyridin-3-yl)pyrimidin-2-yl)-2-methylpiperidin-1-yl)ethan-1-one]: the Kd is greater than 10 µM.

For the origin of these results see patent US20230067929A1, “HETEROCYCLIC DERIVATIVES, PHARMACEUTICAL COMPOSITIONS AND THEIR USE IN THE TREATMENT, AMELIORATION OR PREVENTION OF CANCER” (Tolremo Therapeutics AG, priority 2018, published 2023).
